Test results as given in patent US6656709B1, “Methods of increasing the production of cobalamins using cob gene expression” (priority 1990, dated 2003).

Legend:
[1] = target: T1, cobalamin-5′-phosphate synthase (Sinorhizobium sp, UniProt P29936); assay: Specificity of cobalamin-5′-phosphate synthase; type: biochemical, Pseudomonas denitrificans; conditions: partially purified enzyme
T1 construct: made in house; host or cells: Pseudomonas denitrificans SC510 Rif^r carrying plasmid pXL1490B (own cobV gene amplified)
T1 sequence (P29936 whole entry): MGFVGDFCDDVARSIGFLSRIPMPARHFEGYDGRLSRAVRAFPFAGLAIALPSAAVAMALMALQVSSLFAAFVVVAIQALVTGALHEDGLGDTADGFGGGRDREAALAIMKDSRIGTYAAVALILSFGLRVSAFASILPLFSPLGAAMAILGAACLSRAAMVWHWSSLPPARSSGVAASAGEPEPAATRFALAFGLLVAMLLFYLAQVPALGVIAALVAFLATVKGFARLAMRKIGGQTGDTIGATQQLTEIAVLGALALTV
Description: a) Assay of GDP-cobinamide: α-ribazole-5′-phosphate cobinamidephosphotransferase (or cobalamin-5′-phosphate synthase) activity. This example illustrates the assay of an activity directly linked to the pathway of biosynthesis of cobalamines. The enzyme in question is cobalamin-5′-phosphate synthase. The fractions containing the activity (approximately 5 to 10 units) are incubated in darkness at 30° C. in […] buffer pH 9.0 (500 μl) in the presence of 1 mM EDTA, 12.5 mM MgCl2, 50 μM α-ribazole 5′-phosphate and 20 μM GDP-cobinamide [in 5′-deoxy-5′-adenosyl (Ado) or coenzyme form]. After 15 min of incubation, 20 mM potassium cyanide (500 μl) is added and the solution is heated to 80° C. for 10 min. After centrifugation to remove the precipitated matter, the vitamin B12 5′-phosphate present in the supernatant is assayed as described in Example 9. One unit of cobalamin-5′-phosphate synthase is defined as the quantity of enzyme necessary for generating 1 nmol of cobalamine 5′-phosphate per h under the conditions described above.
This experiment illustrates how a P. denitrificans enzymatic activity participating in the pathway of biosynthesis of cobalamines of P. denitrificans can be partially purified. Using the assay described above, the purification of cobalamin 5′-phosphate synthase is carried out. For this purpose, in a typical purification experiment, wet cells (10 g) of strain SC510 Rif^r, into which plasmid pXL1490B has been introduced as described previously, are used. Plasmid pXL1490B is described in FIG. 38: this plasmid corresponds to the 3.85-kb SstI-SstI-BamHI fragment cloned into PKT230. This plasmid carries the P. denitrificans cobU and cobV genes. […] The SC510 Rif^r pXL1490B cells are obtained by culture in PS4 medium supplemented with lividomycin, as described above. […]
c) Specificity of cobalamin-5′-phosphate synthase. […] Intracellular α-ribazole 5′-phosphate and α-ribazole concentrations of 30 and 700 μM, respectively, were measured by HPLC during the production of cobalamins by SC510 Rif^r in PS4 medium under the culture conditions described in Example 6.1.5a).

[2] = target: T2, P. denitrificans NN:DMBI PRT (Sinorhizobium sp, UniProt P29935); assay: Specificity of NN:DMBI PRT for benzimidazole substrates; type: biochemical, Pseudomonas denitrificans; conditions: NaMN concentration fixed at 2 mM
T2 construct: the amino-terminal methionine is definitely excised in vivo by methionine aminopeptidase; made in house; host or cells: Pseudomonas denitrificans SC510 Rif^r carrying plasmid pXL1490B (cobU and cobV amplified)
T2 sequence (P29935 2-338 limits assumed): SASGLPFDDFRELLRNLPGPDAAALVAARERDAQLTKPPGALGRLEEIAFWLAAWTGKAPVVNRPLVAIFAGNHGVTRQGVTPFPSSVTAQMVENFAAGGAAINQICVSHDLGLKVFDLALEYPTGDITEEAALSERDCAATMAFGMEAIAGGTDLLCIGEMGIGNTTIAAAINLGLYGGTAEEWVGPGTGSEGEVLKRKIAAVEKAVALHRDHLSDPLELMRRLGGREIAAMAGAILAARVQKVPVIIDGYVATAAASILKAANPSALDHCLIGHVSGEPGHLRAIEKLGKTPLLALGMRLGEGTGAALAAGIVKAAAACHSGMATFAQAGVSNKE
Description: a) Assay of Nicotinate-nucleotide:dimethylbenzimidazole phosphoribosyltransferase activity (FIG. 5, reaction 5). This example illustrates the assay of an enzymatic activity directly linked to the pathway of biosynthesis of cobalamins. The enzyme in question is nicotinate-nucleotide:dimethylbenzimidazole phosphoribosyl-transferase (NN:DMBI PRT) (EC 2.4.2.21). The fractions containing NN:DMBI PRT activity (approximately 5 units) are incubated at 30° C. for 8 min in 0.1 M glycine-NaOH buffer pH 9.7 (500 μl) in the presence of 1 mM NaMN (nicotinic acid mononucleotide) and 10 μM DMBI. The reaction is then stopped by heating to 80° C. for 10 min, the reaction mixture is diluted with water (4 volumes) and this solution (100 μl) is injected onto a 15-cm Nucleosil 5-C8 HPLC column eluted with a 0.1 M potassium phosphate pH 2.9/acetonitrile (93:7) mixture at a flow rate of 1 ml/min. The α-ribazole 5′-phosphate is detected and quantified by fluorimetry (excitation: 260 nm; emission >370 nm). The unit of enzymatic activity is defined as the quantity of enzyme necessary for generating 1 nmol of α-ribazole 5′-phosphate per hour under these conditions.
d) Specificity of NN:DBI PRT for DBI. […]

precorrin-6x reductase = target: T3, precorrin-6x reductase (Sinorhizobium sp, UniProt P21920); assay: Reaction catalysed by precorrin-6x reductase, cofactor dependence; type: biochemical, Pseudomonas denitrificans
T3 construct: the amino-terminal methionine is definitely excised in vivo by methionine aminopeptidase; made in house; host or cells: Pseudomonas denitrificans SC510 Rif^r carrying plasmid pXL253 (8.7-kb EcoRI fragment, cobF to cobM, in pKT230)
T3 sequence (P21920 2-261): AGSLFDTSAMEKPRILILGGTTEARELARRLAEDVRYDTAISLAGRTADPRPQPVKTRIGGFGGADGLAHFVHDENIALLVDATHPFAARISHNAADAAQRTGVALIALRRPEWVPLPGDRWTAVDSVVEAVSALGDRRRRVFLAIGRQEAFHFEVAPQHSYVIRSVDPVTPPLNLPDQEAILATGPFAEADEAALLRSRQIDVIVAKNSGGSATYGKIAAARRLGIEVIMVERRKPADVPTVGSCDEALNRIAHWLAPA
Description: The fractions containing precorrin-6x reductase activity (approximately 0.05 unit, U) are incubated at 30° C. for 60 min in 0.1 M Tris-HCl buffer pH 7.7 (250 μl) in the presence of 1 mM EDTA, 500 μM NADPH, 25 μM [methyl-^3H]SAM (80 μCi/μmol), 4 μM precorrin-6x (Thibaut et al., 1990) and partially purified dihydroprecorrin-6x methylase (0.5 U) (see preparation below). The reaction is then stopped by heating to 80° C. for 5 min and, after centrifugation at 5000×g for 5 min, the supernatant is injected onto a DEAE-Sephadex column (containing 200 μl of gel). The column is then washed extensively with the Tris-HCl buffer, and the compounds bound are eluted with 1 M HCl (4 ml). The radio activity in this eluent is counted by liquid scintillation counting. The unit of enzymatic activity is defined as the quantity of enzyme necessary for reducing 1 nmol of precorrin-6x per h under these conditions.
When the purified enzyme (or an active fraction during purification, or even a crude enzyme extract) is incubated under the conditions of the assay of activity, but in the absence of SAM and of dihydroprecorrin-6x methylase, the product of the reaction can then be purified by HPLC in the system described for the purification of precorrin-6x (see Example 6.1.4.d). […]

[3] = target: T4, Methanobacterium ivanovii SUMT (Methanobacterium ivanovii, UniProt P29564); assay: Catalytic properties of purified M. ivanovii SUMT; type: biochemical
T4 construct: endogenous in cells; host or cells: Methanobacterium ivanovii DSM2611 (enzyme purified to homogeneity from the natural organism)
T4 sequence (P29564 2-231 limits assumed): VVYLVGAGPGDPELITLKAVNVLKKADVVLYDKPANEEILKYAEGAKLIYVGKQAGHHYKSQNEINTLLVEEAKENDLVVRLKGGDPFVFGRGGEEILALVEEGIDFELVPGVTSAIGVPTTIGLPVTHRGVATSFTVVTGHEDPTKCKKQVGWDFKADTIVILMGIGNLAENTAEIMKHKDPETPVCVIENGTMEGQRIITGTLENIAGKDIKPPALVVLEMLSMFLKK
Description: Methanobacterium ivanovii strain DSM2611 is cultured as described (Souillard et al., 1988). Wet cells (12 g) are obtained. The latter are resuspended in 0.1 M Tris-HCl buffer pH 7.6 (80 ml) containing 5 mM DTT and 1 mM EDTA, and sonicated for 1 h 30 min at 4° C. and then centrifuged for 1 h at 50,000 g. Free tetrapyrrole compounds are then cleared from the extract by passage through a small DEAE-Sephadex A25 column set up in the same buffer. The proteins precipitating at between 55 and 75% ammonium sulphate saturation are solubilised in a 0.1 M Tris-HCl pH 7.5, 0.5 mM DTT, 1.7 M ammonium sulphate buffer and injected onto a Phenyl-Superose HR 10/10 (Pharmacia France/SA) column eluted with a decreasing gradient (1.7 M to 0 M with respect to ammonium sulphate). The active fractions are passed through a Sephadex G-25 column equilibrated with 0.1 M Tris-HCl pH 7.5, 0.5 mM DTT, 25% glycerol buffer (buffer A), then injected onto a Mono Q HR 5/5 (Pharmacia France SA) column equilibrated with buffer A and eluted with a KCl gradient of 0 to 0.3 M; this step is repeated a second time under the same conditions. Gel permeation chromatography of the active fraction of the preceding step on Bio-Sil TSK-250 (BioRad France SA) enables a protein which is homogeneous in SDS-PAGE and in RP-HPLC (C-18 pBondapak) to be obtained. The different steps of purification, with their yield, as well as their purification factor, are described in the table below.
As shown in this table, the total purification factor is more than 4,500. Some properties of the pure enzyme have been studied according to methods already described (Blanche et al., 1989). This enzyme does indeed have SUMT activity, i.e. it does indeed catalyse the SAM-dependant transfer of two methyl groups at C-2 and at C-7 of uro'gen III.
The Vmax of M. ivanovii SUMT was determined. It is 1537 U/mg of proteins. This value is greater than that found for P. denitrificans SUMT, already determined under optimal conditions for the reaction (taking account of its inhibition by uro'gen III), 489 U/mg of proteins (Blanche et al., 1989).

## Cc1cc2ncn([C@H]3O[C@H](CO)[C@@H](O)[C@H]3O)c2cc1C [α-ribazole]
[1]
  Km: 7.8 µM

## GDP-cobinamide [(Ado)GDP-cobinamide]
[1]
  Km: 0.9 µM

## Cc1cc2ncn([C@H]3O[C@H](COP(=O)(O)O)[C@@H](O)[C@H]3O)c2cc1C [α-ribazole 5′-phosphate]
[1]
  Km: ~2.7 µM

## c1ccc2[nH]cnc2c1 [Benzimidazole]
[2]
  reaction rate compared to the natural substrate (5,6-dimethylbenzimidazole): 157%

## Cc1ccc2nc[nH]c2c1 [5-methylbenzimidazole]
[2]
  reaction rate compared to the natural substrate (5,6-dimethylbenzimidazole): 92%

## NC(=O)C1=CN([C@@H]2O[C@H](COP(=O)(O)OP(=O)(O)OC[C@H]3O[C@@H](n4cnc5c(N)ncnc54)[C@H](O)[C@@H]3O)[C@@H](O)[C@H]2O)C=CC1 [NADH]
precorrin-6x reductase
  cofactor for reduction of precorrin-6x: NADPH cannot be replaced by NADH

## NC(=O)C1=CN([C@@H]2O[C@H](COP(=O)(O)OP(=O)(O)OC[C@H]3O[C@@H](n4cnc5c(N)ncnc54)[C@H](OP(=O)(O)O)[C@@H]3O)[C@@H](O)[C@H]2O)C=CC1 [NADPH]
precorrin-6x reductase
  cofactor for reduction of precorrin-6x: strictly NADPH-dependant

B1: M. ivanovii SUMT: SAM:uro'gen III methyltransferase purified from Methanobacterium ivanovii, encoded by corA (protein)
chain: MVVYLVGAGPGDPELITLKAVNVLKKADVVLYDKPANEEILKYAEGAKLIYVGKQAGHHYKSQNEINTLLVEEAKENDLVVRLKGGDPFVFGRGGEEILALVEEGIDFELVPGVTSAIGVPTTIGLPVTHRGVATSFTVVTGHEDPTKCKKQVGWDFKADTIVILMGIGNLAENTAEIMKHKDPETPVCVIENGTMEGQRIITGTLENIAGKDIKPPALVVLEMLSMFLKK
[3]
  Vmax: 1537 U/mg of proteins
